Measurements published in patent US8288423B2, “FXa inhibitors with cyclic amidines as P4 subunit, processes for their preparations, and pharmaceutical compositions and derivatives thereof” (Legochem Bioscience Ltd., priority 2007, dated 2012).
≈ marks a conversion by molar mass, not a printed value.

Columns and labels:
plasma = assay: Measurement of aPTT (activated partial thromboplastin time) in plasma; type: biochemical; parameters: unit not given here; details: STA-PTT, CaCl2, 37° C., unit not given
Description: The effect of oxazolidinone derivatives with cyclic amidines represented by Chemical Formula (1) according to the invention on blood coagulation was compared by measuring PT (prothrombin time) and aPTT (activated Partial Thromboplastin Time). The procedure of measurement is described below. A solution (5 μL) of the oxazolidinone derivative with cyclic amidine group represented by Chemical Formula (1) according to the invention (in a various concentration gradient, 5% DMSO solution) was added to the plasma ([…]), and the reaction was carried out at 37° C. for 2 minutes. STA-PTT (Diagnostica Stago) (50 μL) was then added thereto. After the reaction at 37° C. for additional 5 minutes, 25 mM CaCl2 (50 μL) was added thereto, and the duration for plasma coagulation was measured. The duration for plasma coagulation was determined as the point when the absorbance at 340 nm reaches 0.1.

plasma protein = assay: Determination of plasma protein binding (ultrafiltration, LC-MS/MS); type: in vitro ADME; details: citrated plasma, 37° C., 60 minutes, Ultracel-10 filter
Description: Citrated plasma was purchased from Daejeon-Chungnam Blood Institute (located at Daejeon, Korea). A compound solution (500 μM in DMSO) (10 μL), according to the invention Was added to the plasma (1 mL), and the reaction was carried out at 37° C. and 120 rpm for 60 minutes. To three wells of Ultracel-10 filter plate (Millipore), the reaction solution was transferred (300 μL each). Then, the plasma solution (70 μL) was taken, and the total concentration of the compound was quantified by means of LC-MS/MS (API3000, ABI). After centrifuging the Ultracel-10 filter plate at 37° C. and 2000×g for 45 minutes, the filtrate was taken to determine the concentration of the compound which was not bound to the plasma protein. Percentage of plasma protein binding was obtained via Equation (2): % Protein binding=(1−concentration of compound in filtrate/concentration of compound in entire solution)×100% Free=100−% Protein binding [Equation 2]

Citrated plasma = assay: Measurement of PT (prothrombin time) in citrated plasma; type: biochemical; details: STA-Neoplastine, 37° C., unit not given (2×PT value)
Description: The effect of oxazolidinone derivatives with cyclic amidines represented by Chemical Formula (1) according to the invention on blood coagulation was compared by measuring PT (prothrombin time) and aPTT (activated Partial Thromboplastin Time). The procedure of measurement is described below. Citrated plasma was purchased from Daejeon-Chungnam Blood Institute (located at Daejeon, Korea). A compound solution (5 μL) according to the invention (in a various concentration gradient, 5% DMSO solution) was added to the plasma ([…]), and the reaction was carried out at 37° C. for 5 minutes. STA-Neoplastine (Diagnostica Stago) (100 μL) was then added thereto, and the duration for plasma coagulation was measured. The duration for plasma coagulation is determined as the point when the absorbance at 340 nm reaches 0.1.

thrombus formation = assay: % inhibition against thrombus formation, arteriovenous shunt model in white rats; type: in vivo, white rats (male Sprague Dawley); parameters: concentration or dose not given beside the values; details: orally administered 1 hour before opening of the shunt; 15 minutes circulation; versus control group
Description: 3) Determination of % Inhibition Against Thrombus Formation by Means of Arteriovenous Shunt Model ([…]) in White Rats Antithrombotic effect of the compounds according to the present invention was evaluated by using arteriovenous shunt model in white rats. The animals used were male Sprague Dawleys with the body weight of 200-250 g. For one day before the experiment, the animals were fasted. Five to six animals were used for each test group. The compound of Example was orally administered 1 hour before opening of the shunt. The rats were anesthetized by abdominal administration of Rompun (Bay HealthCare) and Chloral hydrate or urethane in an amount of 12 and 50 mg per kg of the body weight. Into the left carotid artery and right jugular vein of the white rat, a polyethylene(PE)-60 tubing filled with physiological saline was inserted and secured. Both ends of individual PE tubing were connected to a silicone tubing having a length of 5 cm in which a cotton thread have been incorporated diagonally, and the shunt was open to provide circulation for 15 minutes. The shunt was then compressed by using jaws, and the cotton thread was carefully removed and the thrombus generated was weighed. The % inhibition of thrombus formation was calculated by using the weight of thrombus obtained from white rats of the control group to which a solution of oral administration was administered.

[1] = Determination of aqueous solubility; type: physicochemical; details: aqueous with cosolvent or surfactant or cyclodextrin, kinetic from dmso stock; 100 mM potassium phosphate buffer pH 7.4, 5% DMSO, final concentration 500 μM, ambient temperature 90 minutes
Description: The plate was agitated at ambient temperature for 90 minutes with a rate of 225 rpm. After agitation, the content of the plate was filtered with application of pressure. The filtrate (160 μL) was individually transferred to a uv-96 well plate (Costar), and mixed with 40 μL of acetonitrile, and then agitated at ambient temperature for 10 minutes with a rate of 225 rpm. By means of a plate reader (Molecular Devices, Spectramax 190), absorbances at the wavelengths of 280, 300, 320, 340, 360 and 800 nm were measured. As a reference solution, employed was 100 mM potassium phosphate buffer (pH 7.4) containing 20% acetonitrile added by 10 mM DMSO solution (8 μL).

factor Xa = molecular target: T1, factor Xa (Homo sapiens, UniProt P00742); assay: Inhibiting activity of factor Xa inhibitor (chromogenic substrate S-2765); type: biochemical; details: calculated from IC50 by Equation 1, Km 125 μM; S-2765 substrate, pH 7.8, 37° C.; read-out: Ki (nM), factor Xa inhibition constant
T1 construct: purchased Enzyme Research Laboratories
Description: Relative rate of hydrolysis (as compared to control group without inhibition) was plotted versus logarithm of the concentration of the oxazolidinone derivative with a cyclic amidine represented by Chemical Formula (1) according to the invention, to obtain the concentration of the inhibitor for 50% decrease in the rate of hydrolysis of the substrate.
The inhibition constant can be obtained by spectrophotometry whereby the color development is determined as a function of time, after being reacted with a specific substrate which develops color upon hydrolysis caused by action of factor Xa.
For the inhibitor solution, the inhibitor compound according to the present invention was diluted with dimethylsulfoxide (DMSO) in 10 mM, and then further diluted with third-distilled water (finally 10% DMSO solution), and the solution (10 μL) was added to each well. […] The substrate solution (20 μL) thus prepared was added to each well.
Kinetic analysis of the reaction was performed by a kinetic plate reader (Molecular Devices, Spectramax 190) at 37° C. for 20 minutes.
Relative rate of hydrolysis (compared to control group without inhibition) versus logarithm of the oxazolidinone derivative with a cyclic amidine group (Chemical Formula I) was plotted to obtain the concentration of the inhibitor to decrease the rate of hydrolysis of the substrate by 50%. GraFit (version 5.0.12) program for statistical process purchased from Erithacus Software was employed.
When inhibition constant Ki is calculated, it can be calculated according to Equation (1).

T1 sequence (P00742 235-488 limits assumed): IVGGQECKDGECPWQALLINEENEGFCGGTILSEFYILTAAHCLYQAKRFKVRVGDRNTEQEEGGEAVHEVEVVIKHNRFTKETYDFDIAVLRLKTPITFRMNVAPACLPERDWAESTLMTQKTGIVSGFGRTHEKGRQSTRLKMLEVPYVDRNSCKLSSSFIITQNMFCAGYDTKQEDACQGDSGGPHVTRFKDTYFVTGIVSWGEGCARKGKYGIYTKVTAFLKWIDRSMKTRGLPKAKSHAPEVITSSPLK
T1 sequence (P00742 41-179 partner limits assumed): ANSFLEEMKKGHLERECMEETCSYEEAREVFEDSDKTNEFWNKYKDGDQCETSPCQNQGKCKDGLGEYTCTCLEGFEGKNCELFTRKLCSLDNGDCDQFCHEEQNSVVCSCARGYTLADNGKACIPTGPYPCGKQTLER

| Compound | Plasma protein binding (% Free) (plasma protein) | solubility at 90 min [1] [µM] | Ki (factor Xa) [nM] | APTT (plasma) | PT (Citrated plasma) | % Inhibition (of thrombus formation) (thrombus formation) [%] |
| --- | --- | --- | --- | --- | --- | --- |
| O=C(NC[C@H]1CN(c2ccc(C3=NCCN3)cc2)C(=O)O1)c1ccc(Cl)s1 [Compound 100, 5-chlorothiophene-2-carboxylic acid {(S)-3-[4-(4,5-dihydro-1H-imidazol-2-yl)-phenyl]-2-oxo-oxazolidin-5-ylmethyl}-amide] | 17 | 441 (≈ 179 µg/mL) | 47 | 2.29 | 0.22 | 40 |
| CN1CCN=C1c1ccc(N2C[C@H](CNC(=O)c3ccc(Br)s3)OC2=O)cc1 [Compound 108, 5-bromothiophene-2-carboxylic acid {(S)-3-[4-(1-methyl-4,5-dihydro-1H-imidazol-2-yl)-phenyl]-2-oxo-oxazolidin-5-ylmethyl}-amide] | – | – | 2.42 | 0.15 | 0.03 | 30 |
| CCN1CCN=C1c1ccc(N2C[C@H](CNC(=O)c3ccc(Cl)s3)OC2=O)cc1F [Compound 110] | – | – | 4.4 | 0.19 | 0.03 | 38 |
| CCN1CCN=C1c1ccc(N2C[C@H](CNC(=O)c3ccc(Cl)s3)OC2=O)cc1Cl [Compound 112, 5-chlorothiophene-2-carboxylic acid {(S)-3-[3-chloro-4-(1-ethyl-4,5-dihydro-1H-imidazol-2-yl)-phenyl]-2-oxo-oxazolidin-5-ylmethyl}-amide] | – | – | 4.05 | 0.19 | 0.05 | 26 |
| CN1CCCN=C1c1ccc(N2C[C@H](CNC(=O)c3ccc(Cl)s3)OC2=O)cc1Cl [Compound 113, 5-chloro-thiophene-2-carboxylic acid {(S)-3-[3-chloro-4-(1-methyl-1,4,5,6-tetrahydropyrimidin-2-yl)-phenyl]-2-oxo-oxazolidin-5-ylmethyl}-amide] | – | – | 9.19 | 0.35 | 0.11 | 53 |
| O=C(NC[C@H]1CN(c2ccc(N3CCN=C3c3ccc(Cl)s3)cc2)C(=O)O1)c1ccc(Cl)s1 [Compound 132] | – | – | 1.09 | 0.88 | 0.29 | 60 |
| COC(=O)C1(C2=NCCN2c2ccc(N3C[C@H](CNC(=O)c4ccc(Cl)s4)OC3=O)cc2)CC1 [Compound 135] | – | – | 31.5 | 1.34 | 0.15 | 62 |
| CCC1=NCCCN1c1ccc(N2C[C@H](CNC(=O)c3ccc(Cl)s3)OC2=O)cc1 [Compound 142] | – | – | 2.52 | 0.17 | 0.04 | 47 |

Now from value to compound, other results behind:

| Plasma protein binding (% Free) (plasma protein) | solubility at 90 min [1] [µM] | Ki (factor Xa) [nM] | Compound | APTT (plasma) | PT (Citrated plasma) | % Inhibition (of thrombus formation) (thrombus formation) [%] |
| --- | --- | --- | --- | --- | --- | --- |
| 23 | 434 (≈ 182 µg/mL) | 2.97 | CN1CCN=C1c1ccc(N2C[C@H](CNC(=O)c3ccc(Cl)s3)OC2=O)cc1 [Compound 101, 5-chlorothiophene-2-carboxylic acid {(S)-3-[4-(1-methyl-4,5-dihydro-1H-imidazol-2-yl)-phenyl]-2-oxo-oxazolidin-5-ylmethyl}-amide] | 0.22 | 0.05 | 2 |
| 28 | 462 (≈ 200 µg/mL) | 3.43 | CCN1CCN=C1c1ccc(N2C[C@H](CNC(=O)c3ccc(Cl)s3)OC2=O)cc1 [Compound 102, 5-chlorothiophene-2-carboxylic acid {(S)-3-[4-(1-ethyl-4,5-dihydro-1H-imidazole-2-yl)-phenyl]-2-oxo-oxazolidin-5-ylmethyl}-amide] | 0.17 | 0.04 | 26 |
| – | – | 10.5 | CN1CCCN=C1c1ccc(N2C[C@H](CNC(=O)c3ccc(Cl)s3)OC2=O)cc1F [Compound 111, 5-chloro-thiophene-2-carboxylic acid {(S)-3-[3-fluoro-4-(1-methyl-1,4,5,6-tetrahydropyrimidin-2-yl)-phenyl]-2-oxo-oxazolidin-5-ylmethyl}-amide] | 0.28 | 0.03 | 49 |
| – | – | 2.45 | CC1=NCCN1c1ccc(N2C[C@H](CNC(=O)c3ccc(Cl)s3)OC2=O)cc1 [Compound 114] | 0.12 | 0.03 | 41 |
| – | – | 3.46 | CCC1=NCCN1c1ccc(N2C[C@H](CNC(=O)c3ccc(Cl)s3)OC2=O)cc1 [Compound 116] | 0.18 | 0.05 | 65 |
| – | – | 1.71 | O=C(NC[C@H]1CN(c2ccc(N3CCN=C3c3ccoc3)cc2)C(=O)O1)c1ccc(Cl)s1 [Compound 124] | 0.26 | 0.07 | 52 |
| – | – | 0.69 | Cc1ccc(C2=NCCN2c2ccc(N3C[C@H](CNC(=O)c4ccc(Cl)s4)OC3=O)cc2)s1 [Compound 131] | 0.39 | 0.08 | 0 |
| – | – | 2.38 | CC1=NCCN1c1ccc(N2C[C@H](CNC(=O)c3ccc(Br)s3)OC2=O)cc1 [Compound 138] | 0.16 | 0.04 | 27 |
| – | – | 1.47 | O=C(NC[C@H]1CN(c2ccc(N3CCN=C3c3ccco3)cc2)C(=O)O1)c1ccc(Br)s1 [Compound 139] | 0.47 | 0.07 | 60 |
